These are literature values, as cited in patent US20170360732A1, “Methods and Drug Therapies for Patency of Occluded Blood Vessels Following Angioplasty” (NephroGenesis, LLC, priority 2014, published 2017).

Where two headings read alike, the source gives them in different places.

Experiment in data set [1]: not given
The source holds these as a separate data set.

In another data set the target is T1, lysyl oxidase (Homo sapiens, UniProt P28300).
T1 sequence (P28300 169-417): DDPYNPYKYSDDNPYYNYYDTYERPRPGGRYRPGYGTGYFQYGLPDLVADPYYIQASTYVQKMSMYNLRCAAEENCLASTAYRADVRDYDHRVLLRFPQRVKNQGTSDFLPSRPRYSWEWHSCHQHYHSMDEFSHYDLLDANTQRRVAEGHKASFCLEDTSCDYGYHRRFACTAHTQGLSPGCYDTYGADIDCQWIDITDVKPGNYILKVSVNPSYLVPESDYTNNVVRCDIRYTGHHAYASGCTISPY

Data set [2] has as its system vascular smooth muscle cells. The note with it: 100 μM, cultured cells.
Data set [3] has as its system Type I and Type IV collagen. To be noted: 100 μM.
Experiment in data set [4]: not given
The source holds these as a separate data set.

Data set [5] deals with peripheral blood monocytes.
Data set [6] has as its system arteries injured with balloon angioplasty. The note with it: oral, 6 months, rabbit, vs controls.
Data set [7] relates to vascular smooth muscle cells. The note with it: within 30 minutes.
In data set [8] the test system is vessel restenosis following angioplasty. The note with it: 28 days, rabbit model of atherosclerosis.

By half-life is commonly meant the time in which the quantity being followed falls by half. Turning to `CC(C)(S)[C@@H](N)C(=O)O` [D-penicillamine], where the note is “750 mg oral, patients”, the peak plasma level is 3.0 µg/mL and the “time to peak plasma level” value is not above 3 h. For the same compound, the plasma levels achieved with typical clinical uses (typical clinical uses of the drug) was 3000 ng/mL. Also, the side effects result in data set [1] (intravenous administration) is reported as “no reported side effects”. For the same compound, in [1] (intravenous, patients with primary biliary cirrhosis), the half-life is 1.43 h.
Take `O=C1O[C@H]([C@@H](O)CO)C(O)=C1O` [ascorbic acid]: the “inhibition of lysyl oxidase activity” value on lysyl oxidase (0.2 μM) was “up to 79%”; at lysyl oxidase (2.0 μM, 1 hour after drug administration), 90%; at lysyl oxidase (2.0 μM, within 5 minutes), “completely inhibited”; at lysyl oxidase (10 μM, within 15 minutes), 100%. For the same compound, the “reduction of vascular smooth muscle cell proliferation and migration” value in data set [2] is reported as “up to 16%”. The “increase of expression of Type I and Type IV collagen” value in [3] is given as 200%-250%. For the same compound, the “stimulatory effect upon Type III collagen” value with Type III collagen is reported as “no stimulatory effect”. The maximum plasma concentration in data set [4] (intravenous infusion, 70 gms/m2 (approximately 140 gms), 1000 mg/min, oncology patients) is on record as 50 mM. Moreover, in [4] (rapid intravenous infusion, 70-110 gm/M^2, oncology patients), the side effects entry is reported as “no significant side effects”.
As to `NCCN` [ethylenediamine], in data set [5], the “blocking of lysyl oxidase-stimulated monocyte migration” value is “blocked”.
As for `N#CCCN` [β-aminopropionitrile], in [5], the “blocking of lysyl oxidase-stimulated monocyte migration” value was “blocked”. For the same compound, in data set [6], the “reduction in cross-sectional diameter of the arteries injured with balloon angioplasty” value is 60%. The “inhibition of migration of vascular smooth muscle cells” value in [7] is listed as 80%. In [8], the “reduction of vessel restenosis following angioplasty” value is reported as 33%.
